Converted amounts (≈) assume the structure as drawn.
Legend:
[1] = tested on: isolated trachea of guinea pigs; assay: Spasmolysis of histamine-induced contraction on isolated guinea pig trachea, organ bath; assay type: cell-based; conditions: Cavia porcellus; histamine dihydrochloride as spasmogen, 0.2-2 μg/ml; at least six individual tests; read-out: ED50 on the isolated tracheal preparation
Procedure: (§1) Experiments were carried out on the isolated ileum and on the isolated trachea of guinea pigs in a typical manner in vitro in a suitable organ bath. Histamine dihydrochloride was used as a spasmogen in a final concentration of 0.2-2 μg/ml, depending on the organ preparation. The activity of the compounds was determined from the reactive spasmolysis, i.e., the relative decrease in the force of contractions compared with zero dose. The concentration-action relation was calculated from the non-linear regression between dose and action from at least six individual tests.

[2] = tested on: isolated ileum of guinea pigs; assay: Spasmolysis of histamine-induced contraction on isolated guinea pig ileum, organ bath; assay type: cell-based; conditions: Cavia porcellus; histamine dihydrochloride as spasmogen, 0.2-2 μg/ml; at least six individual tests; read-out: ED50 on guinea pig ileum
Procedure: as §1

[3] = tested on: histamine-induced skin weal in the mouse; assay: Duration of inhibition of histamine-induced skin weal in the mouse after a single oral dose; assay type: in vivo; conditions: oral administration of a comparable dose (to 6 mg/kg)
Procedure: The experiments were carried out on male NMRI mice with a body weight of 25-30 g. […] The dyestuff concentration determined by photometry in a defined area of skin can be designated a measure of the antihistamine activity.

## COc1cccc(CN2CCC(C(O)(c3ccccc3)c3ccccc3)CC2)c1 [[4-(Hydroxydiphenylmethyl)-1-piperidyl]-(3-methoxyphenyl)methane]
[1]
  IC50: 3.5 µg/mL (≈ 9.03 µM)
[2]
  IC50: 0.029 µg/mL (≈ 0.0748 µM)

## CC(C)(C)c1ccc(C(O)CCCN2CCC(C(O)(c3ccccc3)c3ccccc3)CC2)cc1 (stereo not drawn) [terfenadine, α-[4-(1,1-Dimethylethyl)phenyl]-4-(hydroxydiphenylmethyl)-1-piperidinobutanol]
[3]
  antihistamine action after 4 hours: no longer possible to measure reliably an antihistamine action
[1]
  IC50: 4.1 µg/mL (≈ 8.69 µM)
[2]
  IC50: 0.062 µg/mL (≈ 0.131 µM)

Reference: US5077301A, “4-(hydroxydiphenylmethyl)-1-piperidylphenylalkane derivatives as antihistamines and methods of treatment of an allergic response” (Schaper & Bruemmer GmbH & Co. KG, priority 1989, dated 1991)
